Reference: patent publication US12109184B2, “Personalized methods of treating cancer” (CANCER RESEARCH TECHNOLOGY LIMITED, priority 2020, dated 2024)

Columns and labels:
Assay type in all cases: cell-based
[1] = test system: breast, colorectal and pancreatic cancer cell lines; experiment: Cell counting in complete or cysteine-free medium, cell lines not given
Description: (§1) The base medium formulation contained 0.2 mM L-histidine, 0.4 mM L-isoleucine, 0.4 mM L-leucine, 0.4 mM L-lysine, 0.2 mM L-phenylalanine, 0.4 mM L-threonine, 0.08 mM L-tryptophan, 0.4 mM L-valine, 0.2 mM L-arginine, 2 mM L-glutamine, 0.2 mM L-tyrosine, 0.4 mM L-alanine, 0.3 mM L-proline, 0.15 mM L-glutamic acid, 0.1 mM L-aspartic acid, 0.2 mM L-asparagine, and 0.4 mM glycine.
(§2) DAPI-stained cell nuclei were detected via microscopy.
(§3) AMD1 inhibitor sardomozide/SAM486A, GPX4 inhibitor RSL3, and CSE inhibitor beta-cyano-L-alanine were used.
(§4) For experiments using spermine oxidase (SMOX) and polyamine oxidase (PAOX) inhibitors or MTOB, cells were pre-treated with stated concentrations for 16 hours in complete medium. After pre-treatment, cells were washed in PBS, and treatment was continued in complete or cysteine-free medium for stated times. After treatment was finished, cells were fixed and stained as described above. For experiments using MTA, polyamines, GPX4 and CSE inhibitors, treatment started at the same time as cysteine starvation. For experiments involving hypoxic conditions, cells were seeded in normoxic conditions and allowed to adhere for 24 hours before control and cysteine starvation medium was added and cells were immediately transferred either to a humidified cell culture incubator set to 37° C. in 20% O2 (normoxia), or a hypoxia chamber set to 37° C. in 1% O2 (hypoxia) for the stated times. Cells were fixed immediately and stained as described above.

[2] = test system: MDA-MB-231, PANC-1, and MIAPaCa-2 cells; experiment: LC-MS analysis with labelled methionine (polyamine and TsP labelling); conditions: 20 μM sardomozide or 0.1 mM MTOB
Description: For experiments using labelled methionine, the same basic protocol was used as described for the steady state metabolite measurements described above. Experimental media were formulated lacking methionine or serine (described above) and supplemented with the stated concentrations of ^13C5^15N1-methionine, ^13C3^15N1-serine or ^34S1-methionine. Metabolites were extracted as described above.
(§5) Prepared samples were analyzed on an LC-MS platform consisting of an Accela™ 600 LC system and an Exactive™ mass spectrometer. A Sequant® ZIC®-HILIC column (4.6 mm×150 mm, 3.5 μm) was used to separate the metabolites with the mobile phase using A=0.1% (v/v) formic acid in water and B=0.1% (v/v) formic acid in acetonitrile. A gradient program starting at 20% of A and linearly increasing to 80% at 30 min was used followed by washing (92% of A for 5 mins) and re-equilibration (20% of A for 10 min) steps. The total run time of the method was 45 min. The LC stream was desolvated and ionized in the HESI probe. The Exactive™ mass spectrometer was operated in full scan mode over a mass range of 70-1,200 m/z at a resolution of 50,000 with polarity switching. The LC-MS raw data was converted into mzML files by using ProteoWizard and imported to MZMine 2.10 for peak extraction and sample alignment. An in-house database including all possible ^13C and ^15N isotopic m/z values of the relevant metabolites was used for the assignment of LCMS signals. Finally the peak areas were used for comparative quantification.

[3] = test system: MTAP-expressing HCT116 cells; experiment: Cell counting during cysteine starvation, MTAP-expressing HCT116; conditions: SMOX inhibitor, PAOX inhibitor or MTOB supplementation
Source text: (§6) [NT] Successfully transfected cells were selected with puromycin and grown as clonal colonies. Clones were selected based initially on MTA efflux measured by liquid chromatography mass spectrometry (LC-MS). Clones with greatest MTA efflux were selected, and methylthioadenosine phosphorylase knockout (MTAP-KO) was then confirmed by western blot. MTAP-KO HCT116 cells were transfected with pCMV-Hygro-MTAP and pCMV-Hygro-negative control vector, selected using hygromycin B, and grown as clonal colonies. Clones were selected based initially on MTA efflux measured by LC-MS. Clones with low MTA efflux were selected, then MTAP re-expression was confirmed by western blot. […] DAPI-stained cell nuclei were detected via microscopy. For experiments using spermine oxidase (SMOX) and polyamine oxidase (PAOX) inhibitors or MTOB, cells were pre-treated with stated concentrations for 16 hours in complete medium. After pre-treatment, cells were washed in PBS, and treatment was continued in complete or cysteine-free medium for stated times. After treatment was finished, cells were fixed and stained as described above. For experiments using MTA, polyamines, GPX4 and CSE inhibitors, treatment started at the same time as cysteine starvation. For experiments involving hypoxic conditions, cells were seeded in normoxic conditions and allowed to adhere for 24 hours before control and cysteine starvation medium was added and cells were immediately transferred either to a humidified cell culture incubator set to 37° C. in 20% O2 (normoxia), or a hypoxia chamber set to 37° C. in 1% O2 (hypoxia) for the stated times. Cells were fixed immediately and stained as described above.

[4] = test system: MTAP-deleted HCT116 cells; experiment: Cell counting during cysteine starvation, MTAP-deleted HCT116; conditions: SMOX inhibitor, PAOX inhibitor or MTOB supplementation
Source text: as §6, with “microscopy. […]” for “microscopy.”

MDA-MB-231 cells = experiment: Steady state metabolite measurements by LC-MS; conditions: medium lacking cysteine, supplement 0.2 mM
Description: as §5, with “Metabolomics experiments were performed as follows. Cells were seeded into 6-well plates (5×10^5-1.5×10^6 cells/mL, depending on time-course, triplicate wells per condition) in complete medium and adhered overnight. Cells were washed with PBS, and the relevant experimental media were added for the stated times. Duplicate wells were used for cell counting. Cell counts were used to normalize the volume of lysis solvent prior to metabolite extractions (2×10^6 cells/mL). Cells were washed quickly in PBS, then ice-cold lysis solvent (methanol 50%, acetonitrile 30%, water 20%) was added, and cells were scraped on ice. Lysates were transferred to 1.5 mL tubes on ice, vortexed, then spun by centrifugation at 15,000 rpm at 4° C. for 10 minutes. Supernatants were collected and stored at -80° C. for LC-MS analysis. Prepared” for “Prepared”, “Accela™ 600 LC” left out, “ExactiveTM” for “Exactive™”

[5] = test system: SW480 and MDA-MB-231 cells; experiment: Cell counting, rescue by cysteine precursors during cysteine starvation; conditions: supplement at 0.2 mM
Description: HCT116, SW480, MDA-MB-468, MDA-MB-231, AsPC-1, BxPC-3, CFPAC-1, MIAPaCa-2, PANC-1, Panc10.05, SW1990, U-251, LN-18, LN-229, T98G, U-343, A-172 cells were used. Cell lines were authenticated using Short Tandem Repeat (STR) profiling and tested for mycoplasma. Colorectal and breast cancer cell lines were grown in Dulbecco's Modified Eagle Medium (DMEM), pancreatic ductal adenocarcinoma (PDAC) cell lines were grown in Roswell Park Memorial institute (RPMI) 1640. All cell lines were supplemented with penicillin-streptomycin, amphotericin, 2 mM L-glutamine, and 10% fetal bovine serum (FBS). Cells were kept at 37° C. in 5% CO2 in a humidified cell culture incubator. A formulated medium lacking cysteine, cystine, methionine, and serine was used as a base for creating experimental media. The base medium formulation contained 0.2 mM L-histidine, 0.4 mM L-isoleucine, 0.4 mM L-leucine, 0.4 mM L-lysine, 0.2 mM L-phenylalanine, 0.4 mM L-threonine, 0.08 mM L-tryptophan, 0.4 mM L-valine, 0.2 mM L-arginine, 2 mM L-glutamine, 0.2 mM L-tyrosine, 0.4 mM L-alanine, 0.3 mM L-proline, 0.15 mM L-glutamic acid, 0.1 mM L-aspartic acid, 0.2 mM L-asparagine, and 0.4 mM glycine. The base medium was supplemented with 10% dialyzed FBS, penicillin-streptomycin, and amphotericin. To ensure an adequate supply of vitamin B6 (a crucial co-factor for de novo cysteine synthesis), base medium was supplemented with additional 20 μM vitamin B6. The control experimental medium was the base medium supplemented with 0.4 mM L-cysteine, 0.2 mM L-methionine, and 0.4 mM L-serine. The cysteine starvation (−Cys) experimental medium was base medium supplemented with 0.2 mM L-methionine and 0.4 mM L-serine.
Cells were seeded at 6×10^4 cells per well into 24-well plates (triplicate wells per condition) in the relevant complete medium and adhered for a full 24-hour period. A ‘time-0’ plate was included to record the starting cell number to calculate relative cell numbers. Cells were washed once with phosphate-buffered saline (PBS) before receiving experimental medium containing or lacking the specified amino acids, metabolites, or drugs. At the stated time-points the medium was removed, cells were fixed in a 4% formalin-PBS solution. Cells were then washed and stored in PBS before staining with 4′,6-diamidino-2-phenylindole (DAPI)-Triton™ X100-PBS solution for 1 hour, followed by storage in PBS at 4° C. until further analysis. DAPI-stained cell nuclei were detected via microscopy.
Homocysteine, cystathionine, glutathione, putrescine, spermine, spermidine, GPX4 inhibitor ML210, SMOX inhibitor MDL 72527, PAOX inhibitor diminazene aceturate, ferrostatin-1 and erastin were used. AMD1 inhibitor sardomozide/SAM486A, GPX4 inhibitor RSL3, and CSE inhibitor beta-cyano-L-alanine were used. […]

[6] = test system: HCT116, SW480 and MDA-MB-468 cells; experiment: Cell counting during cysteine starvation, starvation-resistant cell lines
Description: as §1, §2, §3, §4

[7] = test system: MDA-MB-231, MIAPaCa-2 and PANC-1 cells; experiment: Cell counting during cysteine starvation, starvation-sensitive cell lines; conditions: SMOX inhibitor 50 μM or PAOX inhibitor 10, 40, 80 μM; 16 h pre-treatment then −Cys
Description: as §1, §2, §3, §4

| Structure (SMILES) | rescue from cysteine starvation ([1]; 0.1 mM MTOB 16 h pre-treatment, then −Cys with MTOB 32 h) | duration of rescue from cysteine starvation ([1]; AMD1 inhibitor or MTOB supplementation) | levels of TsP intermediates [2] | polyamine synthesis (dc-SAM and polyamine labelling) [2] | impact on cell survival during cysteine starvation [3] | cell survival during cysteine starvation [4] | intracellular cysteine levels (MDA-MB-231 cells) | intracellular homocysteine and cystathionine levels (MDA-MB-231 cells) | intracellular γ-glutamylcysteine and GSH levels (MDA-MB-231 cells) | rescue from cysteine starvation-induced cell death (summary in discussion) ([1]; supplementation during cysteine starvation) | rescue of survival/proliferation during cysteine starvation [5] | cell survival and growth under polyamine treatment concurrent with cysteine starvation ([6]; SMOX and PAOX inhibitors with spermidine or spermine, −Cys) | advantage during cysteine starvation ([6]; SMOX or PAOX inhibitor, 16 h pre-treatment then −Cys) | cell death during cysteine starvation [7] |
| --- | --- | --- | --- | --- | --- | --- | --- | --- | --- | --- | --- | --- | --- | --- |
| CSCCC(=O)C(=O)O [MTOB, 4-methylthio-2-oxobutanoic acid] | rescued cells from cysteine starvation | temporary | did not appreciably increase | marked inhibition of polyamine synthesis | little impact | rescued cell survival |  |  |  |  |  |  |  |  |
| N[C@@H](CCSC[C@H](N)C(=O)O)C(=O)O [cystathionine] |  |  |  |  |  |  | moderate increases | significantly increased | more marked increases | rescued from starvation-induced cell death | substantial rescue |  |  |  |
| CC(=O)NCC(=O)O.CC(=O)NCC(=O)O.N=C(N)c1ccc(N=NNc2ccc(C(=N)N)cc2)cc1 [diminazene aceturate] |  |  |  |  | little impact | rescued cell survival |  |  |  |  |  | restored HCT116, SW480, and MDA-MB-468 cell survival and growth | little or no additional advantage | prevented cell death |
